Entries after “also recorded” stand apart in the source; their conditions may differ.
How the values were obtained:
[1] = Mouse 7-day dose range finding study; format: in vivo; details: 7 days
Description: Preparation of Test and Control/Vehicle Items: Vehicle is 2% TPGS/1.5% HPMCAS-HF/1.5% PVP-VA with 50 mM sodium citrate (pH 5.0) in deionized water. LPT-723 is a spray dried dispersion (SDD) containing 25% active and 75% HPMCAS-HF polymer. Test and vehicle items were stored at room temperature, protected from light, and desiccated. Dose formulation was prepared daily. Unless indicated otherwise, LPT-723 was mixed with vehicle to achieve the desired concentrations, using appropriate mixing equipment to achieve homogenous formulations.
The LPT-723 and vehicle were administered once per day for 7 consecutive days. Doses were administered at approximately the same time (±2 hours) throughout the duration of the study. All main study animals were submitted for necropsy on Day 8 (the day following the final dose).

[2] = Micronucleus assay (flow analysis, 7-day oral toxicity study); format: in vivo; details: rat blood, Day 8 of 7-day oral study
Description: Prior to necropsy on Day 8, rats in a main study group of a 7-day oral toxicity and toxicokinetic (TK) study were bled from the jugular vein for the evaluation of the flow analysis of micronucleus. […] The procedure used for collection and fixation of blood is summarized below:
Preparation of the Fixative Tubes: Fixative tubes were prepared one day prior to blood collection. Two 15 mL polypropylene centrifuge tubes (VWR no. 21008-103) were required per sample. 2 mL of ultracold fixative-methanol was added to each appropriately labeled tube (Tubes B1 and B2), and caps were replaced. The rack of tubes was placed overnight at approximately −80° C. to allow for sufficient chilling of the fixative.
Preparation of the Anticoagulant/Diluent Vials (prior to blood collection): One vial (2 mL cryovials; VWR no. 66008-728) was required for each sample. 350 μL of anticoagulant/diluent (Prototype Pig-a Mutation Assay Anticoagulant Solution, lot #17716, provided by BioReliance, from Litron) was aseptically aliquoted into each appropriately labeled vial (Tube A). […]
Transferring of Fixed Samples into LTSS: Samples were transferred into LTSS after they had been in the fixative for at least 3 days. […] With a container of ice and a 25 mL pipette ready for aliquoting the buffer solution used below, the following steps were performed as quickly as possible (within approximately 20 seconds). […]

[3] = test system: Colon26 murine colon cancer cells; assay: Prophylactic Colon26 colon cancer model; format: in vivo, BALB/c mice; details: alone or with antibody
Description: Charles River (CR) BALB/c mice were implanted with Colon26 murine colon cancer cells on Day 1, and treatment was initiated on Day 3 with control (vehicle), anti-CTLA-4 (clone 4F10), anti-PD-1 (clone RMP1-14), anti-CTLA-4/anti-PD-1 combination, LPT-723 (10 mpk, 30 mpk), anti-CTLA-4/LPT-723 (10 mpk, 30 mpk) combination, or anti-PD-1/LPT-723 (10 mpk, 30 mpk) combination. Anti-CTLA-4 was dosed i.p. on Day 8 at a dose of 100 μg/animal and on Days 11, and 14 at a dose of 50 μg/animal. Anti-PD-1 was dosed i.p. twice a week for two weeks starting on Day 3 at a dose of 100 μg/animal. LPT-723 was dosed per os (p.o.) twice a day starting on Day 3.

HCT116 cells = assay: In vitro activity on HCT116 cells in culture; format: cell-based, human; details: up to 30 μM
[4] = test system: HCT-116 human colon xenografts; assay: HCT-116 human colorectal cancer xenograft model; format: in vivo; details: LPT-723 30 mpk p.o. twice a day, BALB/c nude mice
Description: BALB/c nude mice bearing HCT-116 human colon xenografts were treated with control (vehicle) and LPT-723. Treatment was initiated when tumor volume reached approximately 80-120 mm^3. LPT-723 was dosed p.o. twice a day at 30 mpk.

MBT-2 cells = assay: In vitro cell viability assay, MBT-2; format: cell-based, murine; details: Mus musculus

Cc1cc(-c2cncc(C(O)C(F)(F)F)c2)nc2c1C(=O)N(c1cnn(CC(F)F)c1)C2(C)C (stereo not shown) [LPT-723]
tolerability ([1]; mouse, 15, 35, 70 mg/kg/day): well tolerated | clinical signs and histopathology ([1]; mouse): no clinical signs or histopatholoy findings | lymphocyte and monocyte counts ([1]; mouse): decrease in lymphocyte and monocyte counts | toxicity, micronucleus flow analysis [2]: No toxicity was observed; also recorded: no significant toxicity | % TGD ([3]; MR237 10 mg/kg bid): 0% | T-C ([3]; MR237 10 mg/kg bid): −0 | TFS ([3]; MR237 10 mg/kg bid): 0 | Median TTE ([3]; MR237 10 mg/kg p.o. bid from Day 3 to end): 31.9 | % TGD ([3]; MR237 30 mg/kg bid): 5% | T-C ([3]; MR237 30 mg/kg bid): 1.7 | TFS ([3]; MR237 30 mg/kg bid): 1 | MTV (n), Day 57 ([3]; MR237 30 mg/kg bid, Day 57): 0 (1) | Median TTE ([3]; MR237 30 mg/kg p.o. bid from Day 3 to end): 33.7 | activity in vitro on HCT116 cells in culture (HCT116 cells): no activity | tumor growth inhibition [4]: 45% | IC50 (MBT-2 cells): 45.5 µM

Source: patent US11033537B2, “LPT-723 and immune checkpoint inhibitor combinations and methods of treatment” (BIOMED VALLEY DISCOVERIES, INC., priority 2015, dated 2021)
